Measured values published in patent US20050272817A1, “Dermatological use and a dermatological preparation” (priority 2000, published 2005).

What was measured:
psoriatic plaques [1] = test: Additional embodiment: topical T3A or D-T4 with or without T4A on psoriatic plaques, 35 days; format: in vivo, human; conditions: for effect on psoriatic rash (conclusions, in words): topically administered
Description: Simultaneous topical treatment of four untreated, typically scaling and demarcated dermatitic plaques (plaques 1-4) in a psoriatic patient was undertaken. Plaque 5 was left untreated for comparison.
The areas of the plaques at initiation of the treatment were as follows: plaque 1: 5.3 cm^2, plaque 2: 4.9 cm^2, plaque 3: 6.4 cm^2, plaque 4: 5.3 cm^2; plaque 5: 5.6 cm^2.
Triacana® cream containing 200 μg 3,5,3′-triiodothyroacetic acid, T3A, (triac, tiratricol) per gram.
Triacana® cream plus Locobase® unctuous cream containing 500 μg 3,3′,5,5′-tetraiodothyroacetic acid, T4A, per gram (University Pharmacy, Helsinki, Finland. Ex tempore-preparation).
Locobase® unctuous cream containing 2500 μg D-thyroxine, D-T4, per gram (University Pharmacy, Helsinki, Finland. Ex tempore-preparation).
Locobase® unctuous cream containing 2500 μg D-thyroxine, D-T4, per gram (University Pharmacy, Helsinki, Finland. Ex tempore-preparation) plus Locobase® unctuous cream containing 500 μg 3,3′,5,5′-tetraiodothyroacetic acid, T4A, per gram (University Pharmacy, Helsinki, Finland. Ex tempore-preparation).
Triacana® cream was applied to plaques 1 and 2 at 125 mg/cm^2 twice in 24 hours, corresponding to 50 μg 3,5,3′-triiodothyroacetic acid per cm^2 per 24 hours.
T4A-ointment was applied to plaque 2 concurrently with Triacana® cream at 50 mg/cm^2 twice in 24 hours, corresponding to 50 μg 3,3′,5,5′-tetraiodothyroacetic acid per cm^2 per 24 hours.
D-T4-ointment was applied to plaques 3 and 4 at 50 mg/cm^2 twice in 24 hours, corresponding to 250 μg D-T4, per cm^2 per 24 hours.
T4A-ointment was applied to plaque 4 concurrently with the D-T4-ointment at 50 mg/cm^2 twice in 24 hours corresponding to 50 μg/cm^2 3,3′,5,5′-tetraiodothyroacetic acid per cm^2 per 24 hours.
Treatment was continued in this manner for 35 days.

thyroid hormone activity = conditions: background statement; cited from earlier work
psoriatic plaques [2] = test: Continuation of the therapeutic trial from 35 days onward (to 70 days); format: in vivo, human; conditions: for change (reduction) in plaque area: from day 35: plaque 2 (earlier Daivonex) no treatment, plaque 3 (earlier T4A) Locobase, plaque 4 (earlier T4A+T4) T4 ointment 5 μg/cm^2/24 h; for effect on psoriatic rash (in words): topically applied
Description: The therapeutic trial was continued from 35 days onward as follows:
Locobase® ointment containing […], T4, per gram (University Pharmacy, Helsinki, Finland).
As previously, the ointments were applied to the target plaques at 50 mg/cm^2 twice in 24 hours. Thus, the dose of T4 to plaque 4 was 5 μg T4 per cm^2 per 24 hours.

psoriatic plaques [3] = test: Topical treatment of psoriatic plaques in a psoriatic patient, 35 days; format: in vivo, human; conditions: for change (reduction) in plaque area: ointment 50 mg/cm^2 twice in 24 hours
Excerpt: Simultaneous topical treatment of four untreated, typically scaling and sharply demarcated dermatitic plaques ([…]) in a psoriatic patient was undertaken. Plaque 5 was left untreated for comparison.
The areas of the plaques at initiation of the treatment were as follows: plaque 1: 8.7 cm^2; plaque 2: 8.1 cm^2; plaque 3: 6.8 cm^2; plaque 4: 6.1 cm^2; plaque 5: 6.4 cm^2.
The following ointments were applied to plaques 1-4:
Locobase.RTM. unctuous cream (Yamanouchi Europe B. V., Leiderup, Holland).
Daivonex.RTM. calcipotriol ointment containing 50µg calcipotriol per gram (L.o slashed.vens Kemiske Fabrik, Ballerup, Denmark).
Locobase.RTM.D unctuous cream containing 500µg 3,3′,5,5′-tetraiodothyroacetic acid, T4A, per gram (University Pharmacy, Helsinki, Finland).
Locobase.RTM. unctuous cream containing 500 μg T4A per gram and […], T4, per gram (University Pharmacy, Helsinki, Finland).
Each ointment was applied to the plaques at 50 mg/cm^2 twice in 24 hours, corresponding to 5µg calcipotriol per cm^2 per 24 hours for plaque 2, 50 μg T4A per cm^2 per 24 hours for plaques 3 and 4, and 5 μg T4 per cm^2 per 24 hours for plaque 4. Treatment was continued in this manner for 35 days.
The results are presented in Table 1 below, showing the change (reduction) in plaque area with time (days).

psoriatic plaque = test: Topical T4P ointment on a previously untreated psoriatic plaque; format: in vivo, human; conditions: T4P 25 μg/cm^2 twice per 24 hours for 35 days; follow-up 42 days
Description: The topical effect of T4P, 3,3′,5,5′-tetraiodothyropropionic acid ointment on a previously untreated psoriatic plaque, on psoriasis was studied in a therapeutic design identical with the above. The dosage of T4P was 25 μg/cm^2 twice per 24 hours for 35 days. The follow-up period was 42 days. […] Effect of 3,3′,5,5′-tetraiodothyropropionic acid (T4P) ointment on a previously untreated psoriatic plaque. The dosage of T4P was 25 μg/cm^2 twice per 24 hours for 35 days. The follow-up period was 42 days.

psoriasis = conditions: topical calcipotriol therapy; cited from earlier work

In the case of N[C@H](Cc1cc(I)c(Oc2cc(I)c(O)c(I)c2)c(I)c1)C(=O)O [D-T4, D-thyroxine], the “changes in the area or appearance of the plaque during the whole treatment period” value (psoriatic plaques [1]; 35 days, T3A 50 μg/cm^2/24 h or D-T4 250 μg/cm^2/24 h alone) is given as “no visible changes”, the “effect on psoriatic rash (conclusions, in words)” value (“effect … (conclusions, in words)” below) (psoriatic plaques [1]) is given as “did not have any visible effect” and the “thyroid hormone activity relative to T4” value (thyroid hormone activity) is given as “substantially less thyroid hormone activity than T4”.
For N[C@@H](Cc1cc(I)c(Oc2ccc(O)c(I)c2)c(I)c1)C(=O)O [T3, 3,3′,5-triiodo-L-thyronine, reference compound], the “thyroid hormone activity relative to T4” value (thyroid hormone activity) is listed as “five times that of T4”.
With O=C(O)Cc1cc(I)c(Oc2ccc(O)c(I)c2)c(I)c1 [T3A, 3,5,3′-triiodothyroacetic acid] the “effect … (conclusions, in words)” value (psoriatic plaques [1]) was “did not have any visible effect”.
With N[C@@H](Cc1cc(I)c(Oc2cc(I)c(O)c(I)c2)c(I)c1)C(=O)O [T4, 3,3′,5,5′-tetraiodo-L-thyronine, reference compound] the “change (reduction) in plaque area” value (psoriatic plaques [2]; 42 days) was 70%, the “change (reduction) in plaque area” value (psoriatic plaques [2]; 50 days) was 25% and the “change (reduction) in plaque area” value (psoriatic plaques [2]; 62 days) was -10%. The “change (reduction) in plaque area” value (psoriatic plaques [2]; 70 days) was −50% ^, the “increase of the area of plaque 4 compared with baseline” value (psoriatic plaques [2]; T4 ointment 5 μg/cm^2/24 h from day 35 to day 70, plaque previously treated with T4A+T4) was 50% and the “effect on psoriatic rash (in words)” value (psoriatic plaques [2]) was “worsened”.
For O=C(O)Cc1cc(I)c(Oc2cc(I)c(O)c(I)c2)c(I)c1 [T4A, 3,3′,5,5′-tetraiodothyroacetic acid], the “change (reduction) in plaque area” value (psoriatic plaques [2]; 42 days) was 95%, the “change (reduction) in plaque area” value (psoriatic plaques [2]; 50 days) was 95% and the “change (reduction) in plaque area” value (psoriatic plaques [2]; 62 days) was 90%. The “change (reduction) in plaque area” value (psoriatic plaques [2]; 70 days) was 80%, the “inhibition of the rash-worsening effect of T4” value (psoriatic plaques [2]; topical T4A 50 μg/cm^2/24 h with T4 5 μg/cm^2/24 h) was “completely inhibits this effect” and the “effect on psoriatic rash (in words)” value (psoriatic plaques [2]) was “therapeutically efficacious”. The “effect … (conclusions, in words)” value (psoriatic plaques [1]) was “separate and prominent antipsoriatic effect”, the “thyroid hormone activity relative to T4” value (thyroid hormone activity) was “about one-fourth” and the “change (reduction) in plaque area” value (psoriatic plaques [3]; 14 days) was 45%. For the same compound, the “change (reduction) in plaque area” value (psoriatic plaques [3]; 21 days) was 65%, the “change (reduction) in plaque area” value (psoriatic plaques [3]; 28 days) was 85% and the “effect on psoriatic plaques (in words)” value (psoriatic plaques [3]; 35 days topical treatment) was “clear effect”. The “therapeutic efficacy in terms of reduction in plaque area, compared with calcipotriol ointment” value (psoriatic plaques [3]; 35 days topical treatment) was “better than that of the calcipotriol ointment” and the “change (reduction) in plaque area” value (psoriatic plaques [3]; 35 days) was 90%.
For O=C(O)CCc1cc(I)c(Oc2cc(I)c(O)c(I)c2)c(I)c1 [T4P, 3,3′,5,5′-tetraiodothyropropionic acid], the “inhibition of the effects of T4” value (psoriatic plaque) is listed as “completely inhibit the effects of T4”, the “therapeutic efficacy compared with T4A” value (psoriatic plaque) is listed as “equal to T4A in therapeutic efficacy” and the “thyroid hormone activity relative to T4” value (thyroid hormone activity) is listed as “about one-fourth”.
In the case of C=C1/C(=C\C=C2/CCC[C@]3(C)[C@@H]([C@H](C)/C=C/[C@@H](O)C4CC4)CC[C@@H]23)C[C@@H](O)C[C@@H]1O [calcipotriol], the “complete removal of dermatitic plaques, share of cases” value (psoriasis) is given as “about 15%”.
